Experimental findings from ChEMBL document CHEMBL1201862, “PubChem BioAssay data set” (2004) are described below.

Calls of active or inactive are those of the source. Rule as the data show it, for most assays here: actives have a measured IC50 and inactives only a lower limit. A value given as a limit tells only on which side of the number the result lay.

Holding throughout (format): functional
In one experiment the target is T1, Protein RecA (Mycobacterium tuberculosis, UniProt P9WHJ3).
T1 sequence (P9WHJ3 whole entry): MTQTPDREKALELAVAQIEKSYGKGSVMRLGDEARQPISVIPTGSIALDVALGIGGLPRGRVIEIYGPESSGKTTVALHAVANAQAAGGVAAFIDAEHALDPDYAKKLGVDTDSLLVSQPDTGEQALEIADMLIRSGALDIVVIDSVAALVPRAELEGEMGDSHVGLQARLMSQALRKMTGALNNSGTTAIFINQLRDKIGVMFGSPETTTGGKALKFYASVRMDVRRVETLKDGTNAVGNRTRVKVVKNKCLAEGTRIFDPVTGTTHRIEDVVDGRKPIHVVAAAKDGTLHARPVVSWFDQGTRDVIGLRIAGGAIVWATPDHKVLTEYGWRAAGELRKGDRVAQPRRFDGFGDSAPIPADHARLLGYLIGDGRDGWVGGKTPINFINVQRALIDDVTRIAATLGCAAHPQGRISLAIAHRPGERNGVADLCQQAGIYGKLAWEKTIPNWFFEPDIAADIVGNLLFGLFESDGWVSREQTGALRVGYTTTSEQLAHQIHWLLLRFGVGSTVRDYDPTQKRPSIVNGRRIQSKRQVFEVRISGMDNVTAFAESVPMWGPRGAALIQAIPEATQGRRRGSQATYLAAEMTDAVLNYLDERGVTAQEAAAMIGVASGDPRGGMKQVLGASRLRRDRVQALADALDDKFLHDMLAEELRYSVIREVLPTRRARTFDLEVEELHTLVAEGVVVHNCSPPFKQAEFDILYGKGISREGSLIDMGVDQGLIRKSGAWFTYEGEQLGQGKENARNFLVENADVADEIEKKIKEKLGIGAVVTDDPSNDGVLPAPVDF
Kind of experiment: Fluorescence Cell-Free Homogeneous Dose Retest to Identify Inhibitors of RecA-Intein Splicing Activity. [Related pubchem assays (depositor defined):AID2097, AID2223, AID489010, AID492950].

A further experiment has as its target T2, Caspase-3 (Homo sapiens, UniProt P42574).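 Also: Dose-response selectivity test against caspase-3 for candidate inhibitors of sentrin-specific proteases (SENPs).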
T2 sequence (P42574 whole entry): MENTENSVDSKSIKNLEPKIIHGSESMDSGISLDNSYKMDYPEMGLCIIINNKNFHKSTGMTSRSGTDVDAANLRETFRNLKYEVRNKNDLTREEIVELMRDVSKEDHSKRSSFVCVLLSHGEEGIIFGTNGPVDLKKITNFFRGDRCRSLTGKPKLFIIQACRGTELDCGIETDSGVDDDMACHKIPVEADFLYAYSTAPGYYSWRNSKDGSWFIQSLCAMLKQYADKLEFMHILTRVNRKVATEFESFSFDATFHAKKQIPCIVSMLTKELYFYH

In experiment [1] the target is T3, Sentrin-specific protease 7 (Homo sapiens, UniProt Q9BQF6).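 Also: Luminescence-based dose-response confirmation of ultra-high-throughput screening hits, measuring inhibition of SENP7.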
T3 sequence (Q9BQF6 whole entry): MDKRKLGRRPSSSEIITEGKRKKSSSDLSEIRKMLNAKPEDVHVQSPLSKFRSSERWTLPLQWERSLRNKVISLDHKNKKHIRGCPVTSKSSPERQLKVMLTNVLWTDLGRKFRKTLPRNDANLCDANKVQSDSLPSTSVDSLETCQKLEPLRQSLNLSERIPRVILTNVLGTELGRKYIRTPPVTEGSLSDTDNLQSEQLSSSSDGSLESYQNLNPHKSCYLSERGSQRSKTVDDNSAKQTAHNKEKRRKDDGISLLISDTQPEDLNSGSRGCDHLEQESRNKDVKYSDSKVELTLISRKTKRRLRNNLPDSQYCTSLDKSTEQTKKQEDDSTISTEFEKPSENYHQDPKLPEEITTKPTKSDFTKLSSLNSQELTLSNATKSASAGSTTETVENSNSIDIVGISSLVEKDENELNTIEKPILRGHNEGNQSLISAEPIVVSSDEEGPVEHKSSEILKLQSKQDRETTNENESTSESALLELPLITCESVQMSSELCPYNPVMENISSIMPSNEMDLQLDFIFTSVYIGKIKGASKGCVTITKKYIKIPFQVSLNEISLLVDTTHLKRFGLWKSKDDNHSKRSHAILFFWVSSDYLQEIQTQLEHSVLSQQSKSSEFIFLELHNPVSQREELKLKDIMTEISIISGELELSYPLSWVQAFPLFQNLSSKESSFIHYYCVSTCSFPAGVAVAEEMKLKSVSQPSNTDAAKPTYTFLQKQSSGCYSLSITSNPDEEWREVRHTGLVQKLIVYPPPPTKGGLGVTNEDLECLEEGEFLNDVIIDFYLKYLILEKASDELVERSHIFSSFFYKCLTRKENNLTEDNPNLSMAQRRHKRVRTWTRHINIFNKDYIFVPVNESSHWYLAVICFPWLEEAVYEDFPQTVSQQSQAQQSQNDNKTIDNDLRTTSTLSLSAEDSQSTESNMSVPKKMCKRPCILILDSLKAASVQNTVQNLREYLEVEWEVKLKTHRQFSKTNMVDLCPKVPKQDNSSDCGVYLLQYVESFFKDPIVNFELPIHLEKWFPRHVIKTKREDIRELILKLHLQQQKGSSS

The target of experiment [2] is T4, Sentrin-specific protease 8 (Homo sapiens, UniProt Q96LD8).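 Also: luminescence read-out of SENP8 inhibition, dose-response confirmation following an ultra-high-throughput screen.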
T4 sequence (Q96LD8 whole entry): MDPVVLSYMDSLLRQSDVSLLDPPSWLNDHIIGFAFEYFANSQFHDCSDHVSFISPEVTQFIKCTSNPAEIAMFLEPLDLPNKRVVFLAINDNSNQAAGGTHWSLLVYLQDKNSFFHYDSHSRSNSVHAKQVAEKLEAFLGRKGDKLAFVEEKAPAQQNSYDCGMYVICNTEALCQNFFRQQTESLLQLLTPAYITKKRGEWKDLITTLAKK

As to `Cc1nn(-c2ccccc2)c(Cl)c1CN(C(=O)CCl)c1ccc(Cl)cc1`, the EC50 (as a rule, the concentration needed to bring the measured effect to its halfway point) at Protein RecA was 0.355 µM (active).

Regarding `Oc1ccccc1/C=C/c1noc(-c2ccccc2O)n1`, the IC50 (commonly the concentration that gives 50% inhibition) is 39.7 µM (active) on Caspase-3, 3.46 µM (active) in experiment [1] and > 100 µM (inactive) in experiment [2].

Consider `Cc1cccc(N=Nc2ccc(N(C)C)cc2)c1`, for which the values for the 50% inhibitory concentration (IC50) (on Caspase-3; in experiment [1]; in experiment [2]) were 5.57 µM (active), 2.52 µM (active) and 3.74 µM (active), respectively.

As for `O=C(O)CSc1cc(NS(=O)(=O)c2ccc(Cl)cc2)c2ccccc2c1O`, the EC50 on Protein RecA was 2.39 µM (active).

For `COc1ccccc1N1C(=O)Cc2ccccc2C1=O`, the results for the IC50 (at Caspase-3; in experiment [1]; in experiment [2]) were 4.61 µM (active), 31.2 µM (active) and 49.4 µM (active), respectively. Moreover, on Protein RecA, the EC50 is 9.77 µM (active).
